Source: US12624034B2, “Non-covalent modifiers of AKT1 and uses thereof” (Terremoto Biosciences, Inc., priority 2023, dated 2026)
Read-outs that look alike come from different tables or passages of the source.

Key:
[1] = target: T1, AKT1 WT (Homo sapiens, UniProt P31749); experiment: Live cell AKT1 WT target engagement by NanoBRET competitive probe displacement in HEK293 cells; format: binding; conditions: 2 h at 37° C., read-out: AKT1 WT IC50
T1 construct: expressed in transfected cells; host or cells: HEK293
T1 sequence (P31749 whole entry): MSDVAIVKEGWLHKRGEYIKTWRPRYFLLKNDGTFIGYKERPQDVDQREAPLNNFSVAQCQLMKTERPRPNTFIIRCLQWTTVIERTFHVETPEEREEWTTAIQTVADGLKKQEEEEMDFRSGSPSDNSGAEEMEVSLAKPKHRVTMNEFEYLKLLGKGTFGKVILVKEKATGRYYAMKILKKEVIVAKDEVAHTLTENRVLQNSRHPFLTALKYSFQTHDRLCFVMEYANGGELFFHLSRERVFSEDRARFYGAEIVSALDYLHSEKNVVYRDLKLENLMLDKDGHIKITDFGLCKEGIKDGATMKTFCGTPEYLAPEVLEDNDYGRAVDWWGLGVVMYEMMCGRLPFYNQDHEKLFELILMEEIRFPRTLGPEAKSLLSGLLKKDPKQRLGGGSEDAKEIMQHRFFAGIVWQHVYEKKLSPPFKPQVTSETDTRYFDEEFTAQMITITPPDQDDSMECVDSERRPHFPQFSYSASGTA
Description: (§1) Determining live cell AKT1 E17K, AKT1 WT, and AKT2 target engagement by NanoBRET competitive probe displacement. […] Briefly, HEK293 cells were transfected with plasmids encoding kinase-NanoLuciferase fusion proteins overnight. Cells were then treated with serial dilutions of compound and an ˜EC50 concentration of fluorescently-tagged ATP-competitive tracer (Promega). After incubation for 2 h at 37° C., luciferase substrate and extracellular luciferase inhibitor were added to all wells, and luminescent intensity at 460 nm and 600 nm were measured on a multimode plate-reader. The ratio of E600/E460 was calculated to give the tracer engagement signal (BRET). IC50 values were calculated by fitting BRET values to a log(inhibitor) vs. response Hill equation.

[2] = target: T2, AKT2 (Homo sapiens, UniProt P31751); experiment: Live cell AKT2 target engagement by NanoBRET competitive probe displacement in HEK293 cells; format: binding; conditions: 2 h at 37° C., read-out: AKT2 IC50
T2 construct: expressed in transfected cells; host or cells: HEK293
T2 sequence (P31751 whole entry): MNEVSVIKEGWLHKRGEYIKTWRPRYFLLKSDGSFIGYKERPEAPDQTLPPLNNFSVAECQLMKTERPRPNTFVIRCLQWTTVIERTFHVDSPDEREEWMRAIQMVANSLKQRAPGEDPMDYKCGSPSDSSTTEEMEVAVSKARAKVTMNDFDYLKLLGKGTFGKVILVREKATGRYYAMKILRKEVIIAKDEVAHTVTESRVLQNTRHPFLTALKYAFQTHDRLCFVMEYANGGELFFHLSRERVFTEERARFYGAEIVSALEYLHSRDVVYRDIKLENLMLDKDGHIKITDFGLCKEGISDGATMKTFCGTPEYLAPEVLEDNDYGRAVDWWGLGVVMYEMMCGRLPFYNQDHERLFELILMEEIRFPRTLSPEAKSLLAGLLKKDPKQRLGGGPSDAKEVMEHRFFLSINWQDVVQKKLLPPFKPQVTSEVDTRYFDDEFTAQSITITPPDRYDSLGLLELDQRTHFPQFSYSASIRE
Description: as §1

[3] = NanoBRET live cell target engagement, HEK293 cells
[4] = NanoBRET competitive probe displacement, live HEK293 cells

| SMILES | IC50 [1, 3] | IC50 [2, 3] | IC50 [1, 4] | IC50 [2, 4] |
| --- | --- | --- | --- | --- |
| Nc1ncccc1-c1nc2ccc(-n3cccn3)nc2n1-c1ccc2c(c1)CC[C@@H]2NC(=O)c1ccn2ccnc2c1 [Compound 255] | 3.42 nM | 30.4 nM |  |  |
| Nc1ncccc1-c1nc2ccc(-n3nccn3)nc2n1-c1ccc2c(c1)CC(F)[C@@H]2NC1CCN(C(=O)C2CC2)CC1 (single isomer, unassigned) [Compound 533] |  |  | > 1000 nM | 7230 nM |
| Nc1ncccc1-c1nc2ccc(-n3cccn3)nc2n1-c1ccc2c(c1)CC[C@@H]2NC(=O)c1ccc2[nH]c(=O)oc2c1 [Compound 191] | 9.23 nM | 78.6 nM |  |  |
| CN(C)C(=O)c1ccn(-c2ccc3nc(-c4cccnc4N)n(-c4ccc5c(c4)CC[C@@H]5NC4CCN(C(=O)C5CC5)CC4)c3n2)n1 [Compound 591] |  |  | 25.2 nM | 962 nM |
| Cc1nccnc1C(=O)N[C@H]1CCc2cc(-n3c(-c4cccnc4N)nc4ccc(-n5cccn5)nc43)ccc21 [Compound 118] | 66.2 nM | 3230 nM |  |  |
| CC(=O)Nc1ccc(C(=O)N[C@H]2CCc3cc(-n4c(-c5cccnc5N)nc5ccc(-n6cccn6)nc54)ccc32)cc1F [Compound 309] | 10.8 nM | 8.38 nM |  |  |
| N#Cc1cc(-n2nccn2)nc2c1nc(-c1cccnc1N)n2-c1ccc2c(c1)CC[C@@H]2NC(=O)c1ccc(C(F)F)nc1 [Compound 548] |  |  | 27.4 nM | 4080 nM |
| Nc1ncccc1-c1nc2ccc(-n3cccn3)nc2n1-c1ccc2c(c1)CC[C@@H]2NC(=O)c1cc(C2CC2)c(O)c(C(F)(F)F)c1 [Compound 415] |  |  | 2.96 nM | 70 nM |
| Nc1ncccc1-c1nc2ccc(-n3cccn3)nc2n1-c1ccc2c(c1)CC[C@@H]2NC(=O)[C@@H]1CCO1 [Compound 373] | 704 nM | 9910 nM |  |  |
| Cc1ccc(C(=O)N[C@H]2CCc3cc(-n4c(-c5cccnc5N)nc5ccc(-n6cccn6)nc54)ccc32)c(C)n1 [Compound 69] | 10.9 nM | 71.6 nM |  |  |
| Nc1ncccc1-c1nc2ccc(-n3cccn3)nc2n1-c1ccc2c(c1)CC[C@@H]2NC1CCN(C(=O)C2CC2)CC1F (some centres unmarked) [Compound 445] |  |  | 20.2 nM | 980 nM |
| CN(CC1CC1)[C@H]1CCc2cc(-n3c(-c4cccnc4N)nc4ccc(-n5cccn5)nc43)ccc21 [Compound 437] |  |  | 80.7 nM | 1570 nM |
| COc1ccn(-c2ccc3nc(-c4cccnc4N)n(-c4ccc5c(c4)CC[C@@H]5NC4[C@@H]5COC[C@H]4CN(C(=O)C4CC4)C5)c3n2)n1 (single isomer, unassigned) [Compound 524] |  |  | 48.4 nM | 1740 nM |
| Cc1ccc(C(=O)N[C@H]2CCc3cc(-n4c(-c5cccnc5N)nc5ccc(-n6cnc(C)n6)nc54)ccc32)cn1 [Compound 417, (S)—N-(5-(2-(2-aminopyridin-3-yl)-5-(3-methyl-1H-1,2,4-triazol-1-yl)-3H-imidazo[4,5-b]pyridin-3-yl)-2,3-dihydro-1H-inden-1-yl)-6-methylnicotinamide] |  |  | 19.6 nM | 561 nM |
| Nc1ncccc1-c1nc2ccc(-c3ccn(C(F)F)n3)nc2n1-c1ccc2c(c1)CC[C@@H]2NC(=O)c1ccc(C(F)F)nc1 [Compound 74] | 4.94 nM | 34.8 nM |  |  |
| Nc1ncccc1-c1nc2ccc(C#CC3CCC3)nc2n1-c1ccc2c(c1)CC[C@@H]2NC(=O)c1ccc(C(F)F)nc1 [Compound 226] | 45.5 nM | 2020 nM |  |  |
| Cn1c(C(=O)N[C@H]2CCc3cc(-n4c(-c5cccnc5N)nc5ccc(-n6nccn6)nc54)ccc32)cnc1C(F)F [Compound 578] |  |  | 74.9 nM | 1690 nM |
| Nc1ncccc1-c1nc2ccc(-n3cccn3)nc2n1-c1ccc2c(c1)CC[C@@H]2NC(=O)c1cccnc1Cl [Compound 108] | 18.8 nM | 223 nM |  |  |
| CN1CC(Oc2ccn(-c3ccc4nc(-c5cccnc5N)n(-c5ccc6c(c5)CC[C@@H]6NC5CCN(C(=O)C6CC6)CC5)c4n3)n2)C1 [Compound 566] |  |  | 10.5 nM | 246 nM |

| SMILES | IC50 [1, 3] | IC50 [2, 3] | IC50 [1, 4] | IC50 [2, 4] |
| --- | --- | --- | --- | --- |
| COc1cccc(C(=O)N[C@H]2CCc3cc(-n4c(-c5cccnc5N)nc5ccc(-n6cccn6)nc54)ccc32)c1 [Compound 335] | 5.88 nM | 31.5 nM |  |  |
| Nc1ncccc1-c1nc2ccc(-n3cccn3)nc2n1-c1ccc2c(c1)CC[C@@H]2N[C@@H]1CCN(c2ccccc2)C1 [Compound 469] |  |  | 93.4 nM | 1130 nM |
| Nc1ncccc1-c1nc2ccc(-n3ccc(N4CCS(=O)(=O)CC4)n3)nc2n1-c1ccc2c(c1)CC[C@@H]2NC1CCN(C(=O)C2CC2)CC1 [Compound 565] |  |  | 9.86 nM | 274 nM |
| Cc1ncccc1CN[C@H]1CCc2cc(-n3c(-c4cccnc4N)nc4ccc(-n5cccn5)nc43)ccc21 [Compound 140] | 31.5 nM | 576 nM |  |  |
| Cc1ccc(C(=O)N[C@H]2CCc3cc(-n4c(-c5cccnc5N)nc5ccc(-c6nc(C)cs6)nc54)ccc32)cn1 [Compound 300] | 3.32 nM | 8.47 nM |  |  |
| Nc1ncccc1-c1nc2ccc(-n3cccn3)nc2n1-c1ccc2c(c1)CC[C@@H]2NC1CCN(C(=O)C2CC2)CC1F (some centres unmarked) [Compound 444] |  |  | 23.5 nM | 499 nM |
| Cc1cnc2ccc(C(=O)N[C@H]3CCc4cc(-n5c(-c6cccnc6N)nc6ccc(-n7nccn7)nc65)ccc43)cn12 [Compound 398] |  |  | 17.8 nM | 1090 nM |
| COc1cc(C(=O)N[C@H]2CCc3cc(-n4c(-c5cccnc5N)nc5ccc(-n6cccn6)nc54)ccc32)cnn1 [Compound 377] | 2.9 nM | 22.2 nM |  |  |
| Cn1ccc(N2CCC(N[C@H]3CCc4cc(-n5c(-c6cccnc6N)nc6ccc(-n7ccc(N8CCC8)n7)nc65)ccc43)CC2)n1 [Compound 596] |  |  | 12.9 nM | 689 nM |
| COc1cc2c(cn1)CCC2N[C@H]1CCc2cc(-n3c(-c4cccnc4N)nc4ccc(-n5cccn5)nc43)ccc21 (some centres unmarked) [Compound 511] |  |  | 10.4 nM | 196 nM |
| Nc1ncccc1-c1nc2ccc(-n3cccn3)nc2n1-c1ccc2c(c1)CC[C@@H]2N1CCCC1 [Compound 330] | 55.1 nM | 1190 nM |  |  |
| Cc1oncc1C(=O)N1CCC(N[C@H]2CCc3cc(-n4c(-c5cccnc5N)nc5ccc(-n6cccn6)nc54)ccc32)CC1 [Compound 489] |  |  | 92.6 nM | 5410 nM |
| Cc1ccc(C(=O)N[C@H]2CCc3cc(-n4c(-c5cccnc5N)nc5ccc(-n6cncn6)nc54)ccc32)cn1 [Compound 346] | 24.7 nM | 987 nM |  |  |
| Nc1ncccc1-c1nc2ccc(-n3ccc(OC(F)F)n3)nc2n1-c1ccc2c(c1)CC[C@@H]2NC1CCN(C(=O)C2CC2)CC1 [Compound 483] |  |  | 30.9 nM | 7440 nM |
| Nc1ncccc1-c1nc2ccc(C#CC3CC3)nc2n1-c1ccc2c(c1)CC(F)[C@@H]2NC1CCN(C(=O)C2CC2)CC1 (some centres unmarked) [Compound 521] |  |  | 105 nM | > 10000 nM |
| Cn1nc(C(=O)N[C@H]2CCc3cc(-n4c(-c5cccnc5N)nc5ccc(-n6cccn6)nc54)ccc32)cc1C#N [Compound 214] | 56.9 nM | 2690 nM |  |  |
| Nc1ncccc1-c1nc2ccc(-n3ccc(N4CCOCC4)n3)nc2n1-c1ccc2c(c1)CC(F)[C@@H]2NC1CCN(C(=O)C2CC2)CC1 (some centres unmarked) [Compound 544] |  |  | 6.24 nM | 130 nM |
| CN1CC(c2cn([C@H]3CCc4cc(-n5c(-c6cccnc6N)nc6ccc(-n7cccn7)nc65)ccc43)nn2)C1 [Compound 251] | 363 nM | 5810 nM |  |  |
